Tests used:
BT-549 = experiment: Growth inhibition of human BT549 cells assessed as cell growth at 10 uM after 48 hrs by sulforhodamine B assay; type: functional; conditions: BT-549, 48 h, read-out: Activity
PC-3 = experiment: Growth inhibition of human PC3 cells assessed as cell growth at 10 uM after 48 hrs by sulforhodamine B assay; type: functional; conditions: PC-3, 48 h, read-out: Activity
TK-10 = experiment: Growth inhibition of human TK10 cells assessed as cell growth at 10 uM after 48 hrs by sulforhodamine B assay; type: functional; conditions: TK-10, 48 h, read-out: Activity
SN12C = experiment: Growth inhibition of human SN12C cells assessed as cell growth at 10 uM after 48 hrs by sulforhodamine B assay; type: functional; conditions: read-out: Activity
CAKI-1 [1] = experiment: Growth inhibition of human CAKI-1 cells assessed as cell growth at 10 uM after 48 hrs by sulforhodamine B assay; type: functional; conditions: CAKI-1, 48 h, read-out: Activity
SW-620 [2] = experiment: Growth inhibition of human SW620 cells after 48 hrs by sulforhodamine B assay; type: functional; conditions: SW-620, 48 h
HT-29 [3] = experiment: Growth inhibition of human HT-29 cells after 48 hrs by sulforhodamine B assay; type: functional; conditions: HT-29, 48 h
KM12 [4] = experiment: Growth inhibition of human KM12 cells after 48 hrs by sulforhodamine B assay; type: functional, cell-based; conditions: KM12, 48 h
NCI-H522 = experiment: Growth inhibition of human NCI-H522 cells after 48 hrs by sulforhodamine B assay; type: functional; conditions: NCI-H522, 48 h
NCI-H23 [5] = experiment: Growth inhibition of human NCI-H23 cells after 48 hrs by sulforhodamine B assay; type: functional; conditions: NCI-H23, 48 h
SR = experiment: Growth inhibition of human SR cells after 48 hrs by sulforhodamine B assay; type: functional
CCRF-CEM = experiment: Growth inhibition of human CCRF-CEM cells after 48 hrs by sulforhodamine B assay; type: functional
SK-MEL-5 [6] = experiment: Growth inhibition of human SK-MEL-5 cells assessed as cell growth at 10 uM after 48 hrs by sulforhodamine B assay; type: functional; conditions: SK-MEL-5, 48 h, read-out: Activity
SK-MEL-28 = experiment: Growth inhibition of human SK-MEL-28 cells assessed as cell growth at 10 uM after 48 hrs by sulforhodamine B assay; type: functional; conditions: SK-MEL-28, 48 h, read-out: Activity
Malme-3M = experiment: Growth inhibition of human MALME-3M cells assessed as cell growth at 10 uM after 48 hrs by sulforhodamine B assay; type: functional; conditions: read-out: Activity
U-251 [7] = experiment: Growth inhibition of human U251 cells assessed as cell growth at 10 uM after 48 hrs by sulforhodamine B assay; type: functional; conditions: U-251, 48 h, read-out: Activity
SW-620 [8] = experiment: Growth inhibition of human SW620 cells assessed as cell growth at 10 uM after 48 hrs by sulforhodamine B assay; type: functional; conditions: SW-620, 48 h, read-out: Activity
HT-29 [9] = experiment: Growth inhibition of human HT-29 cells assessed as cell growth at 10 uM after 48 hrs by sulforhodamine B assay; type: functional; conditions: HT-29, 48 h, read-out: Activity
KM12 [10] = experiment: Growth inhibition of human KM12 cells assessed as cell growth at 10 uM after 48 hrs by sulforhodamine B assay; type: functional; conditions: KM12, 48 h, read-out: Activity
NCI-H23 [11] = experiment: Growth inhibition of human NCI-H23 cells assessed as cell growth at 10 uM after 48 hrs by sulforhodamine B assay; type: functional; conditions: NCI-H23, 48 h, read-out: Activity
HOP-92 = experiment: Growth inhibition of human HOP92 cells assessed as cell growth at 10 uM after 48 hrs by sulforhodamine B assay; type: functional; conditions: HOP-92, 48 h, read-out: Activity
MCF7 = experiment: Growth inhibition of human MCF7 cells after 48 hrs by sulforhodamine B assay; type: functional; conditions: MCF7, 48 h
RXF 393 = experiment: Growth inhibition of human RXF393 cells after 48 hrs by sulforhodamine B assay; type: functional; conditions: RXF 393, 48 h
CAKI-1 [12] = experiment: Growth inhibition of human CAKI-1 cells after 48 hrs by sulforhodamine B assay; type: functional; conditions: CAKI-1, 48 h
A498 = experiment: Growth inhibition of human A498 cells after 48 hrs by sulforhodamine B assay; type: functional, cell-based; conditions: A498, 48 h
ACHN = experiment: Growth inhibition of human ACHN cells after 48 hrs by sulforhodamine B assay; type: functional
OVCAR-8 = experiment: Growth inhibition of human OVCAR8 cells after 48 hrs by sulforhodamine B assay; type: functional; conditions: OVCAR-8, 48 h
OVCAR-5 = experiment: Growth inhibition of human OVCAR5 cells after 48 hrs by sulforhodamine B assay; type: functional; conditions: OVCAR-5, 48 h
OVCAR-4 = experiment: Growth inhibition of human OVCAR4 cells after 48 hrs by sulforhodamine B assay; type: functional; conditions: OVCAR-4, 48 h
SK-MEL-5 [13] = experiment: Growth inhibition of human SK-MEL-5 cells after 48 hrs by sulforhodamine B assay; type: functional; conditions: SK-MEL-5, 48 h
UACC-257 = experiment: Growth inhibition of human UACC257 cells after 48 hrs by sulforhodamine B assay; type: functional; conditions: UACC-257, 48 h
U-251 [14] = experiment: Growth inhibition of human U251 cells after 48 hrs by sulforhodamine B assay; type: functional; conditions: U-251, 48 h
HOP-62 = experiment: Growth inhibition of human HOP62 cells assessed as cell growth at 10 uM after 48 hrs by sulforhodamine B assay; type: functional; conditions: HOP-62, 48 h, read-out: Activity
A549 = experiment: Growth inhibition of human A549/ATCC cells assessed as cell growth at 10 uM after 48 hrs by sulforhodamine B assay; type: functional; conditions: A549, 48 h, read-out: Activity
RPMI-8226 = experiment: Growth inhibition of human RPMI8226 cells assessed as cell growth at 10 uM after 48 hrs by sulforhodamine B assay; type: functional; conditions: RPMI-8226, 48 h, read-out: Activity
[15] = read-out: LC50 (the source's name)

COc1cc(-c2nn(-c3cccc(NC(=O)Nc4ccc(Cl)c(Cl)c4)c3)cc2-c2ccncc2)ccc1Cl
growth at 10 µM (BT-549): 6.23% | growth at 10 µM (PC-3): -17.6% | growth at 10 µM (TK-10): 10.9% | growth at 10 µM (SN12C): 10.7% | growth at 10 µM (CAKI-1 [1]): 16.8% | GI50 (SW-620 [2]): 1.59 µM | TGI (SW-620 [2]): > 50 µM | CC50 (SW-620 [2]; [15]): > 50 µM | GI50 (HT-29 [3]): 1.24 µM | TGI (HT-29 [3]): 6.46 µM | CC50 (HT-29 [3]; [15]): > 50 µM | GI50 (KM12 [4]): 0.811 µM | IC50 (KM12 [4]): 0.81 µM | TGI (KM12 [4]): 2.77 µM | CC50 (KM12 [4]; [15]): 49.5 µM | GI50 (NCI-H522): 0.811 µM | LC50 (concentration killing 50% of cells) (NCI-H522): > 50 µM | TGI (NCI-H522): 3.1 µM | GI50 (NCI-H23 [5]): 1.41 µM | LC50 (NCI-H23 [5]): > 50 µM | TGI (NCI-H23 [5]): 5.19 µM | GI50 (SR): 0.932 µM | TGI (SR): 2.8 µM | CC50 (SR; [15]): > 50 µM | GI50 (CCRF-CEM): 1.04 µM | LC50 (CCRF-CEM): > 50 µM | growth at 10 µM (SK-MEL-5 [6]): -80% | growth at 10 µM (SK-MEL-28): 4.96% | growth at 10 µM (Malme-3M): -19.9% | growth at 10 µM (U-251 [7]): -6.02% | growth at 10 µM (SW-620 [8]): 13.4% | growth at 10 µM (HT-29 [9]): 1.12% | growth at 10 µM (KM12 [10]): 1.3% | growth at 10 µM (NCI-H23 [11]): 1.67% | growth at 10 µM (HOP-92): -34.3% | GI50 (MCF7): 0.945 µM | LC50 (MCF7): > 50 µM | TGI (MCF7): > 50 µM | GI50 (RXF 393): 0.859 µM | LC50 (concentration killing 50% of cells) (RXF 393): > 50 µM | TGI (RXF 393): 2.44 µM | GI50 (CAKI-1 [12]): 1.12 µM | TGI (CAKI-1 [12]): 3.7 µM | CC50 (CAKI-1 [12]; [15]): > 50 µM | GI50 (A498): 1.14 µM | IC50 (A498): 1.14 µM | TGI (A498): 4.59 µM | CC50 (A498; [15]): > 50 µM | GI50 (ACHN): 1 µM | TGI (ACHN): > 50 µM | CC50 (ACHN; [15]): > 50 µM | GI50 (OVCAR-8): 0.931 µM | TGI (OVCAR-8): 3.61 µM | CC50 (OVCAR-8; [15]): > 50 µM | GI50 (OVCAR-5): 2.13 µM | LC50 (concentration killing 50% of cells) (OVCAR-5): > 50 µM | TGI (OVCAR-5): > 50 µM | GI50 (OVCAR-4): 1.29 µM | LC50 (concentration killing 50% of cells) (OVCAR-4): > 50 µM | TGI (OVCAR-4): > 50 µM | GI50 (SK-MEL-5 [13]): 0.741 µM | LC50 (concentration killing 50% of cells) (SK-MEL-5 [13]): 3.02 µM | TGI (SK-MEL-5 [13]): 1.49 µM | GI50 (UACC-257): 1.04 µM | TGI (UACC-257): 3.11 µM | CC50 (UACC-257; [15]): > 50 µM | GI50 (U-251 [14]): 0.82 µM | LC50 (concentration killing 50% of cells) (U-251 [14]): > 50 µM | TGI (U-251 [14]): 2.47 µM | growth at 10 µM (HOP-62): 10.2% | growth at 10 µM (A549): -5.88% | growth at 10 µM (RPMI-8226): -11.6%

— ChEMBL document CHEMBL2440076, “New triarylpyrazoles as broad-spectrum anticancer agents: design, synthesis, and biological evaluation” (Eur J Med Chem, 2013)
